Source: patent publication US9155752B2, “Liver function-improving agent” (UENO FINE CHEMICALS INDUSTRY, LTD., priority 2012, dated 2015)
“Also recorded” adds a separate entry of the source.

Tested on: NASH mice
Assay: F4/80 immunostaining of liver, inflammation area % (Test Example 3)
Assay type: in vivo
Details: for Inflammation area % (F4/80 immunostaining), mean ± standard deviation: 8 weeks of age; for Inflammation area %, Significant difference: Bonferroni, 5% level, tendency at 10% level
Source text: A solid diet CE-2 (lipid 4.6% by weight, manufactured by CLEA Japan, Inc.) was used as a normal diet. A solid diet, High Fat Diet 32 (lipid 32.0% by weight, sucrose 6.75% by weight, manufactured by CLEA Japan, Inc.), was used as a sucrose-containing high fat diet. As a maltitol-containing high-fat diet, a special diet (lipid 32.0% by weight, maltitol 6.08% by weight; manufactured by CLEA Japan, Inc.) obtained by replacing the total amount (6.75% by weight) of sucrose in a solid diet, High Fat Diet 32, with powdered maltitol (Whole Crystalline Maltitol Ueno 60M (purity of maltitol: 90%), manufactured by Ueno Fine Chemicals Industry Ltd.) was used. Sodium hypochlorite (PURELOX-S, manufactured by OYALOX Co., Ltd.) was added to pure water prepared by Elix-UV pure water producing apparatus, to a final concentration of 0.00009%, so that pure water for use in the test was obtained. An aqueous maltitol solution was prepared by dissolving powdered maltitol (Whole Crystalline Maltitol Ueno 60M (purity of maltitol: 90%), manufactured by Ueno Fine Chemicals Industry Ltd.) in pure water to a concentration of 1.8% (weight/volume). The purity of maltitol in the aqueous maltitol solution was 1.62%. Twenty-one female SPF mice (C57BL/6J, produced by CLEA Japan, Inc.) on day 14 of pregnancy were purchased and acclimation was performed. All animals were allowed to make a natural birth and a born male was used to produce a model. In addition, the weaning was at 4 weeks after birth. Streptozotocin (Sigma-Aldrich Japan K.K.) was adjusted to a concentration of 10 mg/mL with a physiological saline solution (manufactured by Otsuka Pharmaceutical Factory, Inc.) and the solution was subcutaneously administered once to the back of 2-day-old male mice at a dose of 20 μL/mouse (200 μg/mouse). Afterwards, the mother animal took care of the baby until weaning. The weaning was on day 28±2 after birth. After the weaning, a normal diet was supplied ad libitum to animals receiving no streptozotocin (normal mice (group S1 and group 1)), and a sucrose-containing high fat diet was supplied ad libitum to animals receiving streptozotocin (NASH mice (group S2, group 2, group 3, and group 4). A normal diet was supplied ad libitum to normal mice (group 1). With respect to NASH mice, a sucrose-containing high fat diet was supplied ad libitum to the sucrose group (group 2), and a maltitol-containing high fat diet was supplied ad libitum to the maltitol-low dose group (group 3) and the maltitol-high dose group (group 4). An aqueous maltitol solution was supplied ad libitum only to the maltitol-high dose group (group 4) of 5 to 8 weeks of age, and pure water was supplied ad libitum to the groups other than group 4 of 5 to 8 weeks of age. Six male animals per group were assigned to groups S1 and S2, reared up to 5 weeks of age, and then necropsied. Eight male animals per group were assigned to groups 1, 2, 3 and 4, reared up to 8 weeks of age, and then necropsied. At scheduled necropsy of the animals of 5 or 8 weeks of age, all individuals were anesthetized with diethyl ether (manufactured by Sigma-Aldrich Japan K.K.) and a needle through which heparin sodium (Novo Heparin Injection 1000, manufactured by Mochida Pharmaceutical Co., Ltd.) had been passed was punctured to the heart to aspirate the whole blood, leading to euthanasia, followed by harvest of the organ. […]

Compound: OC[C@H]1O[C@@](CO)(O[C@H]2O[C@H](CO)[C@@H](O)[C@H](O)[C@H]2O)[C@@H](O)[C@@H]1O [sucrose, reference compound]
- Inflammation area % (F4/80 immunostaining), mean ± standard deviation (Group 2, sucrose group: HFD32 (sucrose 6.75%) + pure water): 3.28 ± 0.95%

Compound: OC[C@@H](O)[C@@H](O[C@H]1O[C@H](CO)[C@@H](O)[C@H](O)[C@H]1O)[C@H](O)[C@@H](O)CO [maltitol]
- Inflammation area %, Significant difference (Group 3 (low-dose maltitol) vs sucrose group (group 2)): No significant difference and No
- Inflammation area % (F4/80 immunostaining), mean ± standard deviation (Group 3, low-dose maltitol: HFD32-M (maltitol 6.08%) + pure water): 3.04 ± 1.55%
- Inflammation area %, Significant difference (Group 4 (high-dose maltitol) vs sucrose group (group 2)): tendency to be low; also recorded: Tendency to be different
- Inflammation area % (F4/80 immunostaining), mean ± standard deviation (Group 4, high-dose maltitol: HFD32-M (maltitol 6.08%) + aqueous maltitol solution 1.62%): 2.46 ± 0.44%
